Test results published in ChEMBL document CHEMBL5154828 (J Med Chem, 2022).
pEC50, pIC50: −log10 of the molar value.

Columns and labels:
[1] = target: T1, Estrogen receptor (Homo sapiens) (UniProt P03372); assay: Induction of ERalpha degradation in human CAMA-1 cells incubated 24 hrs by Western blot analysis; type: cell-based; conditions: dose 0.1-1000 nM, DDE = dose-dependent effect
T1 sequence (whole entry): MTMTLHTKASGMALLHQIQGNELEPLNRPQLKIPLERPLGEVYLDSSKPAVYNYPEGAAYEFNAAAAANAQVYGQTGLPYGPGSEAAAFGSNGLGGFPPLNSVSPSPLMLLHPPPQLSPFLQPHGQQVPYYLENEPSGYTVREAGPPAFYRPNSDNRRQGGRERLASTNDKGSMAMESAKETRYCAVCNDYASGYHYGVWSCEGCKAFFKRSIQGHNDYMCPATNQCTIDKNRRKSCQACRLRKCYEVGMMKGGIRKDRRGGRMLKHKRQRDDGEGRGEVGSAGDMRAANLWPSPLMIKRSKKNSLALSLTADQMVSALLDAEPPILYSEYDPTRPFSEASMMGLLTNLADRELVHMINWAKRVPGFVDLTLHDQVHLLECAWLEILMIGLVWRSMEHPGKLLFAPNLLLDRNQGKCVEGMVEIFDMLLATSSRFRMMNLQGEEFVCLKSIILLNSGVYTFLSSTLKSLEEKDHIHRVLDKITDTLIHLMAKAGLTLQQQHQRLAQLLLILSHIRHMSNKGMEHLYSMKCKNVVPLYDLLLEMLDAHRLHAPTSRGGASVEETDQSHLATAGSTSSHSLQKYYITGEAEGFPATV

Estrogen receptor [2] = target: Estrogen receptor (Homo sapiens, UniProt P03372, Y537S); assay: Antagonist activity at ERalpha Y537S mutant degradation in human SK-BR-3 cells incubated for 24 hrs in presence of beta-estradiol by luciferase gene assay; type: cell-based
[3] = Clearance in ICR mouse at 2 mg/kg, iv measured up to 24 hrs by LC/MS/MS analysis; type: ADME, organism-based; conditions: in vivo
[4] = AUC (0 to t) in ICR mouse at 5 mg/kg, po measured up to 24 hrs by LC/MS/MS analysis; type: ADME, organism-based; set-up: time < 24 hrs, dose 5 mg/kg, route po; conditions: in vivo
[5] = Tmax in Sprague-Dawley rat at 10 mg/kg, po measured up to 24 hrs by LC/MS/MS analysis; type: ADME, organism-based; conditions: in vivo
[6] = target: T1, Estrogen receptor (Homo sapiens); assay: Induction of ERalpha degradation in human MDA-MB-361 cells incubated 24 hrs by Western blot analysis; type: cell-based; conditions: dose 0.1-1000 nM, DDE = dose-dependent effect
[7] = Elimination half life in ICR mouse at 5 mg/kg, po measured up to 24 hrs by LC/MS/MS analysis; type: ADME, organism-based; conditions: in vivo, read-out: beta t1/2 (converted)
[8] = MRT in ICR mouse at 2 mg/kg, iv measured up to 24 hrs by LC/MS/MS analysis; type: ADME, organism-based; conditions: in vivo
[9] = Drug concentration in rat kidney at 20 mg/kg, po measured after 2 hrs; type: ADME, organism-based; conditions: read-out: Ct
Estrogen receptor [10] = target: T2, Estrogen receptor (Homo sapiens, UniProt P03372); assay: Induction of ERalpha degradation in human MCF7 cells incubated for 24 hrs by Western blot analysis; type: cell-based
T2 sequence (P03372 whole entry): T1 sequence (whole entry)

[11] = Drug concentration in rat uterus at 20 mg/kg, po measured after 2 hrs; type: ADME, organism-based; conditions: female, read-out: Ct
[12] = Drug concentration in rat breast at 20 mg/kg, po measured after 2 hrs; type: ADME, organism-based; conditions: read-out: Ct
[13] = MRT in Sprague-Dawley rat at 10 mg/kg, po measured up to 24 hrs by LC/MS/MS analysis; type: ADME, organism-based; conditions: in vivo
[14] = Ratio of drug concentration in rat blood to plasma at 20 mg/kg, po measured after 2 hrs; conditions: blood and plasma
[15] = target: T1, Estrogen receptor (Homo sapiens); assay: Induction of ERalpha degradation in human T47D cells incubated 24 hrs by Western blot analysis; type: cell-based; conditions: dose 0.1-1000 nM, DDE = dose-dependent effect

Sequence of Estrogen receptor (Homo sapiens, UniProt P03372, Y537S) (P03372 whole entry Y537S): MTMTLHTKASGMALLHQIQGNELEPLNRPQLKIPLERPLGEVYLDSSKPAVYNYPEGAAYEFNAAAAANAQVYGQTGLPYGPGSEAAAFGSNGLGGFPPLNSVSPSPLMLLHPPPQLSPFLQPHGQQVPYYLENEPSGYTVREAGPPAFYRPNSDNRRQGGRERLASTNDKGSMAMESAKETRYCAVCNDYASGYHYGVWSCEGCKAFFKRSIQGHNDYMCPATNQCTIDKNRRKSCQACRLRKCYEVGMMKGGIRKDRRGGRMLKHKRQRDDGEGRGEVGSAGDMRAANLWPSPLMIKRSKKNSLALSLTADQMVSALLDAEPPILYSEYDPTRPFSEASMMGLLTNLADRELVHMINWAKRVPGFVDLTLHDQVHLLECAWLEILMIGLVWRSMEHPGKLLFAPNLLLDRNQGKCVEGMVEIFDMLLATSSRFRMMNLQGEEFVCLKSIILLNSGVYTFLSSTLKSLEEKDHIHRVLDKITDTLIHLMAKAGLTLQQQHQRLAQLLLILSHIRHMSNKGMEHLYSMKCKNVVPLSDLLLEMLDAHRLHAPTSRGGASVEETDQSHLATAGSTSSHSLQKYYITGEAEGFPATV

CC(F)(F)c1cc(Cl)ccc1-c1sc2c(ccc3[nH]ncc32)c1Oc1ccc(OC2CN(CCCF)C2)cc1
Activity [1]: Dde
pIC50 (Estrogen receptor [2]): 7.99
clearance [3]: 0.42 L/h/kg
AUC(0-t) at 24 h [4]: 7.71 µg·h/mL
Tmax [5]: 3.3 h
Activity [6]: Dde
half-life [7]: 5.7 h
MRT [8]: 6.4 h
concentration at 2 h [9]: 7.1 µg/mL
pEC50 (Estrogen receptor [10]): 8.96
concentration at 2 h [11]: 2.17 µg/mL
concentration at 2 h [12]: 2.41 µg/mL
MRT [13]: 7 h
blood plasma ratio at 2 h [14]: 0.8
Activity [15]: Dde
